Results published in the supplement of paper PMC13380429.

Tests used:
Settings in all cases: 72 h
[1] = test system: Calu-3; assay: relative viability EC50 (midpoint between 100% and the lowest measured viability); higher = less toxic
[2] = test system: HepG2; assay: as above
[3] = test system: Vero E6; assay: as above
[4] = test system: Caco-2; assay: as above
[5] = test system: U2OS; assay: as above
[6] = test system: Calu-3; assay: cell viability relative to DMSO; higher = less toxic
[7] = test system: HepG2; assay: as above
[8] = test system: Vero E6; assay: as above
[9] = test system: Caco-2; assay: as above
[10] = test system: U2OS; assay: as above
[11] = test system: Calu-3; assay: drug sensitivity score (DSS) for viability; higher = more toxic; extreme values may be limits of the assay
[12] = test system: HepG2; assay: as above
[13] = test system: Vero E6; assay: as above
[14] = test system: Caco-2; assay: as above
[15] = test system: U2OS; assay: as above

Compound | relative viability EC50 [1] | relative viability EC50 [2] | relative viability EC50 [3] | relative viability EC50 [4] | relative viability EC50 [5] | cell viability ([6]; 1 nM) | cell viability ([6]; 10 nM) | cell viability ([6]; 100 nM) | cell viability ([6]; 1000 nM) | cell viability ([6]; 10000 nM) | cell viability ([7]; 1 nM) | cell viability ([7]; 10 nM) | cell viability ([7]; 100 nM) | cell viability ([7]; 1000 nM) | cell viability ([7]; 10000 nM) | cell viability ([8]; 1 nM) | cell viability ([8]; 10 nM) | cell viability ([8]; 100 nM) | cell viability ([8]; 1000 nM) | cell viability ([8]; 10000 nM) | cell viability ([9]; 1 nM) | cell viability ([9]; 10 nM) | cell viability ([9]; 100 nM) | cell viability ([9]; 1000 nM) | cell viability ([9]; 10000 nM) | cell viability ([10]; 1 nM) | cell viability ([10]; 10 nM) | cell viability ([10]; 100 nM) | cell viability ([10]; 1000 nM) | cell viability ([10]; 10000 nM) | drug sensitivity score [11] | drug sensitivity score [12] | drug sensitivity score [13] | drug sensitivity score [14] | drug sensitivity score [15]
CSc1ccccc1Nc1nc(N2CCNCC2)nc2c(NCC3CC3)ncnc12 [KHK-IN-1] | 2.7 µM | 2.47 µM | 2.26 µM | 3.39 µM | 3.04 µM | 99.5% | 95.4% | 106% | 94.1% | 0.2% | 104% | 91% | 94.1% | 91.6% | 0% | 101% | 98.1% | 96.1% | 89.1% | 0.1% | 103% | 107% | 98.7% | 104% | 0.6% | 97.6% | 98.7% | 95.7% | 98.2% | 0.1% | 6.4 | 6.9 | 7.3 | 5.2 | 5.8
C[C@]12CCC(=O)C=C1C=C[C@@H]1[C@@H]2CC[C@@]2(C)[C@H]1CC[C@@]21CCC(=O)O1 [canrenone] | > 10 µM | > 10 µM | > 10 µM | > 10 µM | > 10 µM | 102% | 111% | 98.5% | 104% | 95% | 106% | 94.5% | 89.1% | 95.4% | 97.5% | 99.3% | 106% | 101% | 104% | 101% | 96.6% | 100% | 88.4% | 99.1% | 91.7% | 101% | 101% | 93.2% | 106% | 95.8% | 0 | 0 | 0 | 0 | 0
CC1CC(OC(=O)C(O)c2ccccc2)CC(C)(C)N1C (stereo not given) [eucatropine] | > 10 µM | > 10 µM | > 10 µM | > 10 µM | > 10 µM | 101% | 100% | 92.5% | 95% | 107% | 93.5% | 88.3% | 95.3% | 90% | 93.3% | 97.8% | 102% | 98.2% | 102% | 98.8% | 99.3% | 103% | 97% | 99.2% | 92.6% | 104% | 104% | 97.8% | 100% | 100% | 0 | 0 | 0 | 0 | 0
CCOc1c2c(c(OCC)c3ccccc13)C(=O)N(c1ccc(CC(=O)NS(=O)(=O)c3ccccc3)cc1)C2 | > 10 µM | > 10 µM | > 10 µM | > 10 µM | > 10 µM | 94% | 98.6% | 102% | 98.1% | 98.2% | 97.6% | 87% | 104% | 93.1% | 104% | 96% | 95.1% | 97.9% | 89.1% | 101% | 96.3% | 94.8% | 97.7% | 90.3% | 89.8% | 99.4% | 100% | 96.4% | 98.9% | 97.2% | 0 | 0 | 0 | 0 | 0
Cc1cccc(C)c1-n1c(=O)c2cnc(Nc3ccc(N4CCN(C)CC4)cc3)nc2n2c3ccccc3nc12 [TC-S-7003] | 1.4 µM | 0.915 µM | 0.527 µM | 1.31 µM | 1.15 µM | 106% | 101% | 95.6% | 70.5% | 5.2% | 98% | 101% | 82% | 58.6% | 9% | 96.9% | 97.4% | 71.7% | 54.6% | 10.6% | 88.3% | 87.9% | 88.3% | 66.1% | 11.6% | 97% | 98.2% | 91.8% | 56.5% | 0.4% | 9.4 | 10.5 | 12.6 | 8.7 | 10.5
CO[C@]12C[C@@H](COC(=O)c3cncc(Br)c3)CN(C)[C@@H]1Cc1cn(C)c3cccc2c13 [nicergoline] | > 10 µM | > 10 µM | > 10 µM | > 10 µM | > 10 µM | 108% | 112% | 111% | 99.7% | 96.6% | 111% | 101% | 102% | 118% | 98.2% | 93.7% | 101% | 92.6% | 97.4% | 108% | 97.7% | 96% | 102% | 95% | 95.4% | 97.1% | 94.8% | 100% | 95.4% | 96.8% | 0 | 0 | 0 | 0 | 0
O=c1[nH]c(=O)n([C@H]2C[C@H](O)[C@@H](CO)O2)cc1F [floxuridine] | > 10 µM | 0.0144 µM | 0.134 µM | 0.0088 µM | > 10 µM | 101% | 85.1% | 93.6% | 88.9% | 89% | 109% | 66.2% | 59.4% | 50% | 43.1% | 97.2% | 91.8% | 74.6% | 53.6% | 42.2% | 88.4% | 62% | 42% | 29.9% | 44.6% | 95.3% | 99.9% | 101% | 105% | 82.6% | 0.5 | 19 | 11.8 | 24.9 | 0.3
NC(=O)NO [hydroxyurea] | > 10 µM | > 10 µM | > 10 µM | > 10 µM | > 10 µM | 104% | 89.4% | 99% | 103% | 95.2% | 106% | 81.9% | 125% | 115% | 103% | 95.6% | 101% | 101% | 97.1% | 112% | 96.5% | 87% | 103% | 77.9% | 94.1% | 97.1% | 98.2% | 102% | 96% | 99.8% | 0 | 0 | 0 | 0.1 | 0
CNS(=O)(=O)Cc1ccc2[nH]cc(CCN(C)C)c2c1 [sumatriptan] | > 10 µM | > 10 µM | > 10 µM | > 10 µM | > 10 µM | 101% | 95.7% | 93.6% | 100% | 94.4% | 81.4% | 106% | 89.1% | 101% | 99.5% | 91.6% | 94.4% | 87.9% | 94.7% | 103% | 91.4% | 96.7% | 104% | 106% | 96.2% | 98.1% | 95.2% | 97.8% | 96.2% | 97.7% | 0 | 0 | 0 | 0 | 0
C[C@H](O)[C@H](O)[C@H]1CNc2nc(N)[nH]c(=O)c2N1 [sapropterin] | > 10 µM | > 10 µM | > 10 µM | > 10 µM | > 10 µM | 94.9% | 97% | 98.6% | 106% | 99.4% | 98.6% | 87.3% | 94.2% | 102% | 86.1% | 97.1% | 102% | 99.6% | 96.9% | 92.6% | 109% | 114% | 90.3% | 107% | 106% | 99.9% | 95.4% | 101% | 91.3% | 99.9% | 0 | 0.1 | 0 | 0 | 0
O=C(Nc1ccc2c(O)cc(S(=O)(=O)O)cc2c1)Nc1ccc2c(O)cc(S(=O)(=O)O)cc2c1 [AMI-1] | > 10 µM | > 10 µM | > 10 µM | > 10 µM | > 10 µM | 104% | 100% | 100% | 109% | 99.8% | 101% | 110% | 106% | 107% | 94.3% | 97.2% | 102% | 102% | 106% | 96% | 87% | 97.8% | 92.8% | 93.5% | 97.2% | 103% | 102% | 99% | 102% | 101% | 0 | 0 | 0 | 0 | 0
NS(=O)(=O)c1cccc2c1c([N+](=O)[O-])cc1nc(O)c(O)nc12 [NBQX] | > 10 µM | > 10 µM | > 10 µM | > 10 µM | > 10 µM | 101% | 85.9% | 92.4% | 93.9% | 103% | 101% | 105% | 101% | 92.7% | 106% | 103% | 100% | 101% | 101% | 99.8% | 102% | 99.3% | 97% | 95.6% | 102% | 104% | 106% | 98.5% | 103% | 102% | 0 | 0 | 0 | 0 | 0
